Measurements taken from patent US10624897B2, “Chlorobenzene substituted azaaryl compounds” (TAIPEI MEDICAL UNIVERSITY, priority 2015, dated 2020).

Legend:
[1] = tested on: FGFR signaling; test: Western blot of FGFR signaling in RT-112 cells; type: cell-based
Text: (§1) BGJ-398, a known selective inhibitor of FGFR1 to FGFR3, was included as a reference compound. […] The major downstream pathways of FGFRs are MAPK, PI3K/AKT, and PLC-γ. RT-112 cells, which express FGFR3-TACC3, are reportedly unable to activate PLCγ due to a deletion of the last exon of FGFR3.

[2] = tested on: RT-112, RT4 and T24 cells; test: MTT assay, bladder cancer cells with different FGFR3 status; type: cell-based; settings: 72 h, FIG. 1A
Protocol: Cell viability was assessed the MTT assay. […] Data are expressed as means±S.D. (***P<0.001 compares to control group).
as §1

CCN1CCN(c2ccc(Nc3ncnc(N(C)C(=O)Nc4c(Cl)c(OC)c(Cl)c(OC)c4Cl)n3)cc2)CC1 [MPT0L145, 1-(4-((4-(4-ethylpiperazin-1-yl)phenyl)amino)-1,3,5-triazin-2-yl)-1-methyl-3-(2,4,6-trichloro-3,5-dimethoxyphenyl)urea]
inhibiting AKT phosphorylation ([1]; 1 to 4 h, FIG. 2B, 2C): better potency than BGJ-398 | auto-phosphorylation of FGFR1 and FGFR3 and docking protein FRS2 ([1]; 1 h, FIG. 2A): exerted inhibitory activity | phosphorylation of ERK ([1]; 1 h, concentration-dependent, FIG. 2B): inhibited | phosphorylation of ERK and AKT ([1]; 8 h, FIG. 2D): fully repressed | sensitivity of FGFR3-TACC3 fusion cells (RT-112, RT4) versus normal FGFR3 status (T24) [2]: more sensitive
